*1 amine or outer side, *2 acyl side, *3 side chain or, on linkers, in order; H or OH if unused. Where a SMILES comes first, the peptide text is derived from it. Bridges are numbered along the chain shown (N, C = ends). [ ]: non-standard residue; d: D form. The star is where a group is joined. X24 = O=C([C@H](Cc1ccc(C(F)(F)F)cc1)N(CCC(F)(F)F)[*:1])[*:2]; hPhe(3-Cl-4-CF3) = N[C@@H](CCc1ccc(C(F)(F)F)c(Cl)c1)C(=O)O; X23 = CC(C)CN([C@@H](Cc1ccc(C(F)(F)F)cc1)C(=O)[*:2])[*:1]; X31 = O=C([C@H](Cc1ccc(C(F)(F)F)cc1)N(CC1CC1)[*:1])[*:2]; X42 = COCCCN([C@@H](Cc1ccc(C(F)(F)F)cc1)C(=O)[*:2])[*:1]; X17 = CCCCN([C@@H](Cc1ccc(C(F)(F)F)cc1)C(=O)[*:2])[*:1]; X28 = C#CCN([C@@H](Cc1ccc(C(F)(F)F)cc1)C(=O)[*:2])[*:1]; X32 = COCCN([C@@H](Cc1ccc(C(F)(F)F)cc1)C(=O)[*:2])[*:1]; NMeGly(cPent) = CN[C@H](C(=O)O)C1CCCC1; NMeD = CN[C@@H](CC(=O)O)C(=O)O; NMeL = CN[C@@H](CC(C)C)C(=O)O; Morpholide = C1CN(*)CCO1; NMeA = CN[C@@H](C)C(=O)O; Ac5c = NC1(C(=O)O)CCCC1; Aze = O=C(O)[C@@H]1CCN1; Sar = CNCC(=O)O
Legend:
[1] = molecular target: GDP-bound HRAS wild-type protein (Homo sapiens, UniProt P01112); experiment: Binding to HRAS by surface plasmon resonance (SPR), Single Cycle Kinetics; conditions: KD ratio HRAS/KRAS, SPR
[2] = molecular target: GDP-bound NRAS wild-type protein (Homo sapiens, UniProt P01111); experiment: Binding to NRAS by surface plasmon resonance (SPR), Single Cycle Kinetics; conditions: KD ratio NRAS/KRAS, SPR
Chain of GDP-bound NRAS wild-type protein (P01111 whole entry): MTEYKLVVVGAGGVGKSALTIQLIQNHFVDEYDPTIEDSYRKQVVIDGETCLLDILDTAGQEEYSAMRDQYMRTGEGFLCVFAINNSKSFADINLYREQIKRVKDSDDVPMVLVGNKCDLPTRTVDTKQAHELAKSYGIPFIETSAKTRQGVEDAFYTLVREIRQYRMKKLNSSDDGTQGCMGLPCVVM

Chain of GDP-bound HRAS wild-type protein (P01112 whole entry): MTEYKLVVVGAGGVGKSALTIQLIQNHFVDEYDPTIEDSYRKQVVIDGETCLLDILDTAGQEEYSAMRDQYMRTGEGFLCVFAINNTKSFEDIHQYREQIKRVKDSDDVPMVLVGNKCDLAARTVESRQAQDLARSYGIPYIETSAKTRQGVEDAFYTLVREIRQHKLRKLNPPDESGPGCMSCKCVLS

C#CCN1C(=O)[C@@H]2CCN2C(=O)[C@H](C)N(C)C(=O)[C@H]([C@@H](C)CC)NC(=O)[C@H](CC(C)C)N(C)C(=O)C[C@@H](C(=O)N2CCOCC2)N(C)C(=O)[C@H](C2CCCC2)N(C)C(=O)C2(CCCC2)NC(=O)[C@@H]2CCCN2C(=O)[C@H](CCc2ccc(C(F)(F)F)c(Cl)c2)NC(=O)CN(C)C(=O)[C@@H]1Cc1ccc(C(F)(F)F)cc1 [PP0116] ([NMeL]I[NMeA][Aze][X28][Sar][hPhe(3-Cl-4-CF3)]P[Ac5c][NMeGly(cPent)][NMeD]-Morpholide; lactam N-11)
HRAS/KRAS (ratio of KD for GDP-bound HRAS wild-type to KD for KRAS) [1]: C (A compound having a KD ratio of 0.1 or more and less than 3 is denoted as C) | NRAS/KRAS (ratio of KD for GDP-bound NRAS wild-type to KD for KRAS) [2]: C (A compound having a KD ratio of 0.1 or more and less than 3 is denoted as C)

CC[C@H](C)[C@@H]1NC(=O)[C@H](CC(C)C)N(C)C(=O)C[C@@H](C(=O)N2CCOCC2)N(C)C(=O)[C@H](C2CCCC2)N(C)C(=O)C2(CCCC2)NC(=O)[C@@H]2CCCN2C(=O)[C@H](CCc2ccc(C(F)(F)F)c(Cl)c2)NC(=O)CN(C)C(=O)[C@H](Cc2ccc(C(F)(F)F)cc2)N(CCC(F)(F)F)C(=O)[C@@H]2CCN2C(=O)[C@H](C)N(C)C1=O [PP0117] ([NMeL]I[NMeA][Aze][X24][Sar][hPhe(3-Cl-4-CF3)]P[Ac5c][NMeGly(cPent)][NMeD]-Morpholide; lactam N-11)
HRAS/KRAS (ratio of KD for GDP-bound HRAS wild-type to KD for KRAS) [1]: B (a compound having 3 or more and less than 10 is denoted as B) | NRAS/KRAS (ratio of KD for GDP-bound NRAS wild-type to KD for KRAS) [2]: B (a compound having 3 or more and less than 10 is denoted as B)

CC[C@H](C)[C@@H]1NC(=O)[C@H](CC(C)C)N(C)C(=O)C[C@@H](C(=O)N2CCOCC2)N(C)C(=O)[C@H](C2CCCC2)N(C)C(=O)C2(CCCC2)NC(=O)[C@@H]2CCCN2C(=O)[C@H](CCc2ccc(C(F)(F)F)c(Cl)c2)NC(=O)CN(C)C(=O)[C@H](Cc2ccc(C(F)(F)F)cc2)N(CCOC)C(=O)[C@@H]2CCN2C(=O)[C@H](C)N(C)C1=O [PP0118] ([NMeL]I[NMeA][Aze][X32][Sar][hPhe(3-Cl-4-CF3)]P[Ac5c][NMeGly(cPent)][NMeD]-Morpholide; lactam N-11)
HRAS/KRAS (ratio of KD for GDP-bound HRAS wild-type to KD for KRAS) [1]: C (A compound having a KD ratio of 0.1 or more and less than 3 is denoted as C) | NRAS/KRAS (ratio of KD for GDP-bound NRAS wild-type to KD for KRAS) [2]: C (A compound having a KD ratio of 0.1 or more and less than 3 is denoted as C)

CC[C@H](C)[C@@H]1NC(=O)[C@H](CC(C)C)N(C)C(=O)C[C@@H](C(=O)N2CCOCC2)N(C)C(=O)[C@H](C2CCCC2)N(C)C(=O)C2(CCCC2)NC(=O)[C@@H]2CCCN2C(=O)[C@H](CCc2ccc(C(F)(F)F)c(Cl)c2)NC(=O)CN(C)C(=O)[C@H](Cc2ccc(C(F)(F)F)cc2)N(CCCOC)C(=O)[C@@H]2CCN2C(=O)[C@H](C)N(C)C1=O [PP0119] ([NMeL]I[NMeA][Aze][X42][Sar][hPhe(3-Cl-4-CF3)]P[Ac5c][NMeGly(cPent)][NMeD]-Morpholide; lactam N-11)
HRAS/KRAS (ratio of KD for GDP-bound HRAS wild-type to KD for KRAS) [1]: C (A compound having a KD ratio of 0.1 or more and less than 3 is denoted as C) | NRAS/KRAS (ratio of KD for GDP-bound NRAS wild-type to KD for KRAS) [2]: C (A compound having a KD ratio of 0.1 or more and less than 3 is denoted as C)

CCCCN1C(=O)CN(C)C(=O)CN(C)C(=O)[C@H]([C@@H](C)CC)NC(=O)[C@H](CC(C)C)N(C)C(=O)C[C@@H](C(=O)N2CCOCC2)N(C)C(=O)[C@H](C2CCCC2)N(C)C(=O)C2(CCCC2)NC(=O)[C@@H]2CCCN2C(=O)[C@H](CCc2ccc(C(F)(F)F)c(Cl)c2)NC(=O)CN(C)C(=O)[C@@H]1Cc1ccc(C(F)(F)F)cc1 [PP0120] ([NMeL]I[Sar][Sar][X17][Sar][hPhe(3-Cl-4-CF3)]P[Ac5c][NMeGly(cPent)][NMeD]-Morpholide; lactam N-11)
HRAS/KRAS (ratio of KD for GDP-bound HRAS wild-type to KD for KRAS) [1]: C (A compound having a KD ratio of 0.1 or more and less than 3 is denoted as C) | NRAS/KRAS (ratio of KD for GDP-bound NRAS wild-type to KD for KRAS) [2]: B (a compound having 3 or more and less than 10 is denoted as B)

CC[C@H](C)[C@@H]1NC(=O)[C@H](CC(C)C)N(C)C(=O)C[C@@H](C(=O)N2CCOCC2)N(C)C(=O)[C@H](C2CCCC2)N(C)C(=O)C2(CCCC2)NC(=O)[C@@H]2CCCN2C(=O)[C@H](CCc2ccc(C(F)(F)F)c(Cl)c2)NC(=O)CN(C)C(=O)[C@H](Cc2ccc(C(F)(F)F)cc2)N(CC(C)C)C(=O)CN(C)C(=O)CN(C)C1=O [PP0121] ([NMeL]I[Sar][Sar][X23][Sar][hPhe(3-Cl-4-CF3)]P[Ac5c][NMeGly(cPent)][NMeD]-Morpholide; lactam N-11)
HRAS/KRAS (ratio of KD for GDP-bound HRAS wild-type to KD for KRAS) [1]: C (A compound having a KD ratio of 0.1 or more and less than 3 is denoted as C) | NRAS/KRAS (ratio of KD for GDP-bound NRAS wild-type to KD for KRAS) [2]: C (A compound having a KD ratio of 0.1 or more and less than 3 is denoted as C)

CC[C@H](C)[C@@H]1NC(=O)[C@H](CC(C)C)N(C)C(=O)C[C@@H](C(=O)N2CCOCC2)N(C)C(=O)[C@H](C2CCCC2)N(C)C(=O)C2(CCCC2)NC(=O)[C@@H]2CCCN2C(=O)[C@H](CCc2ccc(C(F)(F)F)c(Cl)c2)NC(=O)CN(C)C(=O)[C@H](Cc2ccc(C(F)(F)F)cc2)N(CC2CC2)C(=O)CN(C)C(=O)CN(C)C1=O [PP0122] ([NMeL]I[Sar][Sar][X31][Sar][hPhe(3-Cl-4-CF3)]P[Ac5c][NMeGly(cPent)][NMeD]-Morpholide; lactam N-11)
HRAS/KRAS (ratio of KD for GDP-bound HRAS wild-type to KD for KRAS) [1]: C (A compound having a KD ratio of 0.1 or more and less than 3 is denoted as C) | NRAS/KRAS (ratio of KD for GDP-bound NRAS wild-type to KD for KRAS) [2]: C (A compound having a KD ratio of 0.1 or more and less than 3 is denoted as C)
